Measured values: patent publication US20250346592A1 (Celgene Corporation, priority 2022, published 2025)

Assays:
hPAD4 enzyme [1] = target: T1, hPAD4 enzyme (Homo sapiens (Human), UniProt Q9UM07); test: RFMS1 assay (RapidFire mass spectrometry, BAEE substrate); type: biochemical; settings: 5 nM hPAD4, 250 μM BAEE, 30 min preincubation at 37° C., 90 min reaction; read-out: RFMS 1 IC50
Procedure: Compounds were solubilized in 100% DMSO to achieve a 10 mM compound concentration. Compound stock solutions were stored at RT. A series of dilutions were prepared in DMSO and mixed 8 times with 20 μL mixing volume. Final top concentration of compound in the assay is 50 μM. Final assay conditions were as follows: • Reaction volume: 26 μl • Assay buffer: 25 mM hepes, pH 7.5, 5 mM NaCl, 1 mM DTT, 0.2 mg/ml BSA, 0.01% CHAPS, 50 µM Calcium, and 5 μM TPEN • Final concentrations: 5 nM hPAD4 enzyme, 250 µM BAEE, and 0.5% DMSO • Total incubation time: 30 mins compound and enzyme preincubation at 37° C., 90 min enzyme/substrate reaction, 30 min reaction with phenyl glyoxal at 37° C. • Stop solution: 40 μl 5% TCA in ACN • 0.13 μL of compound solution was added to 13 μL of 10 nM PAD4 in assay buffer. After […] min 13 μl of 500 µM of BAEE was added in 25 mM hepes, pH 7.5, 5 mM NaCl, 1 mM DTT, 0.2 mg/ml BSA, 0.01% CHAPS, 50 μM Calcium, 5 μM TPEN was added and the reaction incubated for 90 min at 37° C. The enzymatic reaction was quenched by addition of 15 μl of 6.1N TCA, 100% Final Concentration is 20%, 35 μl of 8.5 mM phenyl glyoxal (final concentration 4 mM) is then added and the reaction is incubated for 30 min at 37° C.
After 30 minutes the plates are spun down to remove all precipitate. The enzyme reaction was quenched with an equal volume of methanol containing internal standard (modified citrulline). Samples were loaded onto the Rapid Fire RF300 system (Agilent) wherein they were first sipped for 1000 ms and then directly loaded to a C18 separations cartridge using a mixture of acetonitrile containing 0.01% formic acid for 3000 ms desalting. The flow rate of the mobile phase was 1.5 ml/min. Once the samples were eluted from the cartridge, a mobile phase of acetonitrile containing 0.01% formic acid was used to move the samples into the mass spectrometer for 4000 ms at a flow rate of 1.25 ml/min/Sciex API5500 triple quadrupole mass spectrometer (Applied Biosystems) equipped with ESI was used to analyze the peptidyl citrulline and internal standard ions.
MRM transition of product and internal standard were monitored at m/z 424.5 to 350.4 and m/z 293 to 247 respectively. The dwell time for each transition was set at 200 ms, and the ESI voltage was used at 5500 with a source temperature of 400° C. Extracted ion peaks for each transition were integrated using the Rapid Fire Integrator software. Peak area of analyte was normalized with internal standard.).
Compounds having an activity designated as “A” provided an IC50≤10 nM; compounds having an activity designated as “B” provided an IC50 11-100 nM; compounds having an activity designated as “C” provided an IC50 101-500 nM; compounds having an activity designated as “D” provided an IC50 501-1000 nM; compounds having an activity designated as “E” provided an IC50>1000 nM.

hPAD4 enzyme [2] = target: T1, hPAD4 enzyme; test: RFMS2 assay (RapidFire mass spectrometry, TSTGGRQGSHH peptide substrate); type: biochemical; settings: 35 nM recombinant human PAD4, 500 μM TSTGGRQGSHH peptide, 30 minutes at room temperature; read-out: RFMS 2 IC50
Outline: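 IC50 derived from RapidFire LC-MS/MS (positive ESI MRM) of substrate versus product after a 30 min room-temperature reaction stopped with 10% formic acid. Reaction contained 35 nM human PAD4, 500 μM peptide, 2 mM CaCl2, 5 mM DTT at pH 7.4, and compounds diluted 3-fold from 20 μM.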

T1 sequence (Q9UM07 whole entry): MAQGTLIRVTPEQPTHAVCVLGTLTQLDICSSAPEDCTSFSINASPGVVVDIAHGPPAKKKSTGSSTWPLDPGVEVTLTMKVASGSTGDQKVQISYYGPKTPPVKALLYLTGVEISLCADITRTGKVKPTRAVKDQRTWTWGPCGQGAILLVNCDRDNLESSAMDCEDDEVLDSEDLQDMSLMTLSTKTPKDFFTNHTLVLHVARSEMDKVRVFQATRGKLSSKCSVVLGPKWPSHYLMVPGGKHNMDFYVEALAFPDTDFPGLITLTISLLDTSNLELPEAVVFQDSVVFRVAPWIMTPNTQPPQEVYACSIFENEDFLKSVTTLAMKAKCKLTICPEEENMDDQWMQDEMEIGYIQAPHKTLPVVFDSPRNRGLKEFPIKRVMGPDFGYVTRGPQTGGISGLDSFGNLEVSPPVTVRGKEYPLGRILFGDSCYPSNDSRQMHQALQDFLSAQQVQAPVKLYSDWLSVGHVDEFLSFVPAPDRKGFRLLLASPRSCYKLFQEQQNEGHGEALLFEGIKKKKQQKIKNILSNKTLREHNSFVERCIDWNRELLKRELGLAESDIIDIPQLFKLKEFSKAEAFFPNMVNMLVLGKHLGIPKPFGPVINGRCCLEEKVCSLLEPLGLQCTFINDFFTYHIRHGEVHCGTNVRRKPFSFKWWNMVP

IC50 (hPAD4 enzyme [1]) [nM] | IC50 (hPAD4 enzyme [2]) [nM] | Compound
≤ 10 | – | Cn1c(-c2cc3cccc(OC(F)Cn4ccnc4)c3n2CC2CC2)nc2cc3c(cc21)CCN(C[C@H](N)CF)C3=O (single isomer, unassigned) [Example 226a]
11 to 100 | – | Cc1cc(N2CCCS2(=O)=O)ccc1-c1ccc2cc(-c3nc4cc5c(cc4n3C)CCN(C[C@H](N)CF)C5=O)n(CC3CC3)c2n1 [Example 57, (S)-6-(2-amino-3-fluoropropyl)-2-(1-(cyclopropylmethyl)-6-(4-(1,1-dioxidoisothiazolidin-2-yl)-2-methylphenyl)-1H-pyrrolo[2,3-b]pyridin-2-yl)-1-methyl-1,6,7,8-tetrahydro-5H-imidazo[4,5-g]isoquinolin-5-one]
11 to 100 | – | Cc1cc(N2CC(C)(C)OC2=O)ccc1-c1ccc2cc(-c3nc4cc5c(cc4n3C)CCN(C[C@H](N)CF)C5=O)n(CC3CC3)c2n1 [Example 58, (S)-3-(4-(2-(6-(2-amino-3-fluoropropyl)-1-methyl-5-oxo-5,6,7,8-tetrahydro-1H-imidazo[4,5-g]isoquinolin-2-yl)-1-(cyclopropylmethyl)-1H-pyrrolo[2,3-b]pyridin-6-yl)-3-methylphenyl)-5,5-dimethyloxazolidin-2-one]
11 to 100 | – | CCc1nc(N2CCOC2=O)ccc1-c1ccc2cc(-c3nc4cc5c(cc4n3C)CCN(C[C@H](N)CF)C5=O)n(CC3CC3)c2n1 [Example 61, (S)-3-(5-(2-(6-(2-amino-3-fluoropropyl)-1-methyl-5-oxo-5,6,7,8-tetrahydro-1H-imidazo[4,5-g]isoquinolin-2-yl)-1-(cyclopropylmethyl)-1H-pyrrolo[2,3-b]pyridin-6-yl)-6-ethylpyridin-2-yl)oxazolidin-2-one]
11 to 100 | – | COc1cccc2cc(-c3nc4cc5c(cc4n3C)CCN(C[C@H](N)CF)C5=O)n(CCOC(F)F)c12 [Example 135, (S)-6-(2-amino-3-fluoropropyl)-2-(1-(2-(difluoromethoxy)ethyl)-7-methoxy-1H-indol-2-yl)-1-methyl-1,6,7,8-tetrahydro-5H-imidazo[4,5-g]isoquinolin-5-one]
≤ 10 | – | C[C@H](COc1cccc2cc(-c3nc4cc5c(cc4n3C)CCN(C[C@H](N)CF)C5=O)n(CC3CC3)c12)n1cnc(F)c1 [Example 217, 6-((S)-2-amino-3-fluoropropyl)-2-(1-(cyclopropylmethyl)-7-((R)-2-(4-fluoro-1H-imidazol-1-yl)propoxy)-1H-indol-2-yl)-1-methyl-1,6,7,8-tetrahydro-5H-imidazo[4,5-g]isoquinolin-5-one]
≤ 10 | – | C[C@H](COc1cccc2cc(-c3nc4cc5c(cc4n3C)CCN(C[C@@H](C)N)C5=O)n(CC3CC3)c12)n1cnc(F)c1 [Example 230, 6-((R)-2-aminopropyl)-2-(1-(cyclopropylmethyl)-7-((R)-2-(4-fluoro-1H-imidazol-1-yl)propoxy)-1H-indol-2-yl)-1-methyl-1,6,7,8-tetrahydro-5H-imidazo[4,5-g]isoquinolin-5-one]
101 to 500 | – | COc1cccc2cc(-c3nc4cc5c(cc4n3C)CCN(C[C@H]3COCCN3)C5=O)n(CCOC(F)F)c12 [Example 233, (S)-2-(1-(2-(difluoromethoxy)ethyl)-7-methoxy-1H-indol-2-yl)-1-methyl-6-(morpholin-3-ylmethyl)-1,6,7,8-tetrahydro-5H-imidazo[4,5-g]isoquinolin-5-one]
≤ 10 | – | C[C@H](COc1cccc2cc(-c3nc4cc5c(cc4n3C)CCN(C[C@H]3COCCN3)C5=O)n(CC3CC3)c12)n1cnc(F)c1 [Example 235, 2-(1-(cyclopropylmethyl)-7-((R)-2-(4-fluoro-1H-imidazol-1-yl)propoxy)-1H-indol-2-yl)-1-methyl-6-(((S)-morpholin-3-yl)methyl)-1,6,7,8-tetrahydro-5H-imidazo[4,5-g]isoquinolin-5-one]
– | 501 to 1000 | COc1ccc2cc(-c3nc4cc5c(c(F)c4n3C)CCN(C[C@H](N)CF)C5=O)n(CC3CC3)c2c1 [Example 239, (S)-6-(2-amino-3-fluoropropyl)-2-(1-(cyclopropylmethyl)-6-methoxy-1H-indol-2-yl)-9-fluoro-1-methyl-1,6,7,8-tetrahydro-5H-imidazo[4,5-g]isoquinolin-5-one]
101 to 500 | – | COc1cccc2cc(-c3nc4cc5c(c(F)c4n3C)CCN(C[C@H]3COCCN3)C5=O)n(CC3CC3)c12 [Example 240, (S)-2-(1-(cyclopropylmethyl)-7-methoxy-1H-indol-2-yl)-9-fluoro-1-methyl-6-(morpholin-3-ylmethyl)-1,6,7,8-tetrahydro-5H-imidazo[4,5-g]isoquinolin-5-one]
≤ 10 | – | C[C@H](COc1cccc2cc(-c3nc4cc5c(c(F)c4n3C)CCN(C[C@H](N)CF)C5=O)n(CC3CC3)c12)n1cnc(F)c1 [Example 241, 6-((S)-2-amino-3-fluoropropyl)-2-(1-(cyclopropylmethyl)-7-((R)-2-(4-fluoro-1H-imidazol-1-yl)propoxy)-1H-indol-2-yl)-9-fluoro-1-methyl-1,6,7,8-tetrahydro-5H-imidazo[4,5-g]isoquinolin-5-one]
≤ 10 | – | C[C@H](COc1cccc2cc(-c3nc4cc5c(c(F)c4n3C)CCN(C[C@H]3COCCN3)C5=O)n(CC3CC3)c12)n1cnc(F)c1 [Example 242, 2-(1-(cyclopropylmethyl)-7-((R)-2-(4-fluoro-1H-imidazol-1-yl)propoxy)-1H-indol-2-yl)-9-fluoro-1-methyl-6-(((S)-morpholin-3-yl)methyl)-1,6,7,8-tetrahydro-5H-imidazo[4,5-g]isoquinolin-5-one]
11 to 100 | – | CC(=O)N1CCC(c2cccc3cc(-c4nc5cc6c(cc5n4C)CCN(C[C@H]4COCCN4)C6=O)n(CC4CC4)c23)CC1 [Example 243, (S)-2-(7-(1-acetylpiperidin-4-yl)-1-(cyclopropylmethyl)-1H-indol-2-yl)-1-methyl-6-(morpholin-3-ylmethyl)-1,6,7,8-tetrahydro-5H-imidazo[4,5-g]isoquinolin-5-one]
11 to 100 | – | COCC(=O)N1CCC(c2cccc3cc(-c4nc5cc6c(cc5n4C)CCN(C[C@H]4COCCN4)C6=O)n(CC4CC4)c23)CC1 [Example 244, (S)-2-(1-(cyclopropylmethyl)-7-(1-(2-methoxyacetyl)piperidin-4-yl)-1H-indol-2-yl)-1-methyl-6-(morpholin-3-ylmethyl)-1,6,7,8-tetrahydro-5H-imidazo[4,5-g]isoquinolin-5-one]
101 to 500 | – | Cc1cc(C(N)=O)c(F)cc1-c1ccc2cc(-c3nc4cc5c(cc4n3C)CCN(C[C@H]3COCCN3)C5=O)n(CC3CC3)c2n1 [Example 245, (S)-4-(1-(cyclopropylmethyl)-2-(1-methyl-6-(morpholin-3-ylmethyl)-5-oxo-5,6,7,8-tetrahydro-1H-imidazo[4,5-g]isoquinolin-2-yl)-1H-pyrrolo[2,3-b]pyridin-6-yl)-2-fluoro-5-methylbenzamide]
11 to 100 | – | Cc1cc(N2CCCS2(=O)=O)ccc1-c1ccc2cc(-c3nc4cc5c(cc4n3C)CCN(C[C@H]3COCCN3)C5=O)n(CC3CC3)c2n1 [Example 246, (S)-2-(1-(cyclopropylmethyl)-6-(4-(1,1-dioxidoisothiazolidin-2-yl)-2-methylphenyl)-1H-pyrrolo[2,3-b]pyridin-2-yl)-1-methyl-6-(morpholin-3-ylmethyl)-1,6,7,8-tetrahydro-5H-imidazo[4,5-g]isoquinolin-5-one]
11 to 100 | – | Cc1cc(N2CC(C)(C)OC2=O)ccc1-c1ccc2cc(-c3nc4cc5c(cc4n3C)CCN(C[C@H]3COCCN3)C5=O)n(CC3CC3)c2n1 [Example 247, (S)-3-(4-(1-(cyclopropylmethyl)-2-(1-methyl-6-(morpholin-3-ylmethyl)-5-oxo-5,6,7,8-tetrahydro-1H-imidazo[4,5-g]isoquinolin-2-yl)-1H-pyrrolo[2,3-b]pyridin-6-yl)-3-methylphenyl)-5,5-dimethyloxazolidin-2-one]
